The experiment deals with cough of guinea pigs induced by citric acid. Briefly: citric acid induced guinea pig cough model. The conditions noted are these: for Cough Time (Number of Times) / Cough Incubation Period: once daily for 3 days, x±s, n=8; for Cough Time (Number of Times): cough times within 6 min after citric acid atomization; for Cough Incubation Period: within 6 min after citric acid atomization; for Antitussive Ratio: (N(blank control)-N(administration group))/N(blank control)x100%. The class given is in vivo, Hartley guinea pigs. How it is done:
Experimental animals: 250-350 g of common level Hartley guinea pigs, including half males and half females are provided by Guangdong Medical Experimental Animal Center, wherein the number of the animal certificate is SCXK (Yue) 2008-0002.
Reagents and instruments: citric acid monohydrate (Guangzhou Chemical Reagent Factory, batch number: 20121001-2), wherein 0.8 M of citric acid solution is prepared by adding normal saline into citric acid monohydrate when in use; an animal noninvasive Buxco lung function detecting system (Buxco Company of America); an Aeroneb Pro atomizer (Aerogen (Ireland) Co., Ltd.); and a gavage needle (Guangdong Medical Experimental Animal Center).
A citric acid induced guinea pig cough model is adopted for efficacy evaluation. 112 Hartley guinea pigs are put in a 6 L plethysmograph of the animal noninvasive Buxco lung function detecting system one by one; the air velocity of a drift indicator is 2.5 L/min; 0.8 M of atomized aerosol of citric acid ultrapure aqueous solution is led for 1 min by the Aeroneb Pro atomizer; the average diameter of the atomized granules is […]; observation is carried out for 5 min; the sound of cough is recorded and amplified by an indoor microphone; sound waves are analyzed by Biosystem XA software; and computer software is used for processing sound data and recording cough situations. A trained observer observes whether a cough response exists or not, records the cough times within 6 min since atomization and selects the guinea pigs with more than 10 cough times as qualified animals for tests.
56 Hartley guinea pigs qualified by screening, including half males and half females, are randomly divided into 7 groups; 1 mL/100 g of normal saline is provided to a blank control group; a corresponding solvent (Tween-80 aqueous solution with 5% volume concentration) with equal volume is provided to a solvent group; 30 mg/kg of codeine phosphate with equal volume is provided to a positive drug group, asarinin (30 mg/kg, 60 mg/kg and 120 mg/kg of samples in embodiment 1) and total volatile oil of asarum (200 mg/kg of samples in embodiment 1) with equal volume are provided to each of administration groups; administration is carried out one time every day for successive 3 days. A citric acid atomization simulation test is carried out in the animal noninvasive Buxco lung function detecting system within 2 h after last administration (atomization conditions are described above); the cough times (N) and the cough incubation periods within 6 min are recorded; and the antitussive ratios of all the administration groups are calculated by a formula: antitussive ratio=(N(blank control)−N(administration group))/N(blank control)×100%.
The data are expressed by x±s, and a one-way analysis of variance is carried out on parameters of all the groups by IBM SPSS Statistics 19.0 software.

Regarding `COc1ccc2c3c1O[C@H]1[C@@H](O)C=C[C@H]4[C@@H](C2)N(C)CC[C@@]341` [Codeine Phosphate, reference compound], for the setting “30 mg/kg”, the “Cough Time (Number of Times)” value is 12.0 ± 2.3 Number of Times, the “Cough Incubation Period” value was 130.0 ± 32.4 S and the “Antitussive Ratio” value is recorded as 55.2%.

On to `c1cc2c(cc1C1OCC3C1CO[C@H]3c1ccc3c(c1)OCO3)OCO2` (stereo in doubt) [Asarinin, 5,5′-[(1R,3aR,4S,6aR)-tetrahydro-1H,3H-furo[3,4-c]furan-1,4-diyl]bis-1,3-Benzodioxole], for which, under “30 mg/kg”, the “Cough Time (Number of Times)” value is 16.3 ± 2.2 Number of Times, the “Cough Incubation Period” value is 98.5 ± 9.5 S and the “Antitussive Ratio” value was determined as 39.2%. Besides, for the setting “60 mg/kg”, the “Cough Time (Number of Times)” value is reported as 13.2 ± 2.1 Number of Times, the “Cough Incubation Period” value is 94.2 ± 13.6 S and the “Antitussive Ratio” value turned out to be 50.7%. Moreover, where the note is “120 mg/kg”, the “Cough Time (Number of Times)” value was 12.6 ± 1.9 Number of Times, the “Cough Incubation Period” value is listed as 127.3 ± 24.8 S and the “Antitussive Ratio” value worked out at 53.0%.
